Patent publication US20260191961A1, “RUTHENIUM (II) POLYPYRIDYL COMPLEX AS A PHOTO-SENSITISER IN PHOTODYNAMIC THERAPY, AND A PROCEDURE FOR MAKING SAID RUTHENIUM (II) POLYPYRIDYL COMPLEX” (UNIVERSITÀ DEGLI STUDI DI FIRENZE, priority 2022, published 2026)
Where two headings read alike, the source gives them in different places.

Columns and labels:
[1] = Singlet oxygen quantum yield by direct 1O2 phosphorescence at 1270 nm; format: physicochemical; details: acetonitrile; direct phosphorescence signal of 1O2 at 1270 nm; reference [Ru(phen)3Cl2]
Procedure: The capacity of complexes IIIa-c to efficiently generate singlet oxygen (^1O2) upon irradiation with light is a key factor in the evaluation of their potential as photosensitising agents for applications in photodynamic therapy. In this connection, the singlet oxygen quantum yields of complexes IIIa-c were determined by means of direct phosphorescence signal of ^1O2 at 1270 nm generated by irradiation of acetonitrile solutions of the complexes and using dichlorotris(1,10-phenanthroline)ruthenium (II) chloride ([Ru(phen)3Cl2]) as a standard reference. A Horiba FluoroMax Plus spectrofluorometer was used for these measurements.

[2] = DHN assay (indirect UV-visible probe for 1O2); format: physicochemical; details: acetonitrile, LED 400-500 nm; for kobs, rate constant of the DHN photo-oxidation process: [DHN]=330 μM, [Ru]=10 μM; for Φ1O2 (b) singlet oxygen quantum yield: indirect UV-visible measurements with DHN probe, standard [Ru(phen)3]Cl2
Procedure: A confirmation of the production of singlet oxygen (^1O2) with such a high quantum yields by the three IIIa-c molecular systems was obtained using 1,5-dihydroxynaphthalene (DHN) as an indirect chemical probe for ^1O2 and [Ru(phen)3]Cl2 as a commercial standard. In the DHN assay, the probe is selectively and quantitatively oxidised in the presence of ^1O2 to give the corresponding photo-oxidation product 5-hydroxy-1,4-naphthalenedione (Juglone). The production of ^1O2 was assessed by monitoring the decrease in the DHN absorption band at λ=297 nm and the corresponding increase in the Juglone band at λ=427 nm. […] On this basis, the quantum yield of formation of ^1O2 can be obtained via the equation
where φΔ are the quantum yields of ^1O2 production from the photosensitising agents, k are the rate constants obtained from the DHN assays, labs represents the absolute value for the integration of the absorption of the photosensitising agents in the spectral emission region of the LED lamp (400 nm to 500 nm), and the subscript ST indicates the commercial standard [Ru(phen)3]Cl2.

[3] = system: Methastatic Lung Adenocarcinoma (Calu-3); experiment: In-vitro photo-cytotoxicity, MTT assay, Calu-3; format: cell-based; details: read-out: IC50 (maximum response set to zero)
Procedure: The activity of compound IIIa as a photosensitising agent in photodynamic therapy was evaluated on two in-vitro tumour models: squamous cell carcinoma of the epidermis (A431) and glioblastoma multiforme (U87MG). Cells cultured on 96-well plates were treated with increasing concentrations of IIIa dispersed in the culture medium for one hour. At the end of the incubation, the medium was replaced, and the cells were exposed to LED light (λmax 462 nm) for 30 minutes, or were left in the dark during the same time. At the end of the 30 minutes, the cells were placed back and maintained in the incubator for 24 hours before measuring the metabolic activity by MTT assay. Six replicates were used for each condition, and cell viability of 100% was calculated from the response of untreated cells not exposed to LED light. […]
The activity of compound IIIc as a photosensitising agent in photodynamic therapy was evaluated on an in-vitro tumour model, Methastatic Lung Adenocarcinoma (Calu-3), following the same protocol as compounds IIIa and IIIb. […]
The activity of compound IIIc encapsulated in cubosomes as a photosensitising agent in photodynamic therapy was evaluated on an in vitro tumour model: Methastatic Lung Adenocarcinoma (Calu-3), following the same protocol as compound IIIa and IIIb. […]

[4] = system: squamous cell carcinoma of the epidermis (A431); experiment: In-vitro photo-cytotoxicity, MTT assay, A431; format: cell-based; details: 1 h incubation, MTT after 24 h, read-out: IC50 (maximum response set to zero)
Procedure: (§1) The activity of compound IIIa as a photosensitising agent in photodynamic therapy was evaluated on two in-vitro tumour models: squamous cell carcinoma of the epidermis (A431) and glioblastoma multiforme (U87MG). Cells cultured on 96-well plates were treated with increasing concentrations of IIIa dispersed in the culture medium for one hour. At the end of the incubation, the medium was replaced, and the cells were exposed to LED light (λmax 462 nm) for 30 minutes, or were left in the dark during the same time. At the end of the 30 minutes, the cells were placed back and maintained in the incubator for 24 hours before measuring the metabolic activity by MTT assay. Six replicates were used for each condition, and cell viability of 100% was calculated from the response of untreated cells not exposed to LED light. […] The high specificity of IIIa, defined as toxicity only when exposed to light, is evident from the difference in IC50 values, which indicate a potent cytotoxic activity in the presence of light irradiation and substantial inertia in the dark at the concentrations tested, as shown in Table 3.
The activity of compound IIIb as a photosensitising agent in photodynamic therapy was evaluated on an in vitro tumour model, i.e., squamous cell carcinoma of the epidermis (A431), following the same protocol as compound IIIa. […] The high specificity of IIIb, defined as toxicity only when exposed to light, is evident from the difference in IC50 values, which indicate a potent cytotoxic activity in the presence of light irradiation and substantial inertia in the dark at test concentrations, see Table 4.
The activity of compound IIIb encapsulated in cubosomes as a photosensitising agent in photodynamic therapy was evaluated on an in vitro tumour model: squamous cell carcinoma of the epidermis (A431), following the same protocol as compound IIIa and IIIb as such. […] However, the incorporation into a delivery system can bring numerous benefits, including increased distribution in the tumour after in vivo administration, increased stability and solubility, and improved crossing of biological barriers.

[5] = system: glioblastoma multiforme (U87MG); experiment: In-vitro photo-cytotoxicity, MTT assay, U87MG; format: cell-based; details: 1 h incubation, MTT after 24 h, read-out: IC50 (maximum response set to zero)
Procedure: as §1

[6] = value of the commercial standard used for the calculation; cited from earlier work
[7] = 30′ LED light exposure (λmax 462 nm)

Row | SMILES | Φ1O2 (a) singlet oxygen quantum yield [1] | kobs, rate constant of the DHN photo-oxidation process [2] | Φ1O2 (b) singlet oxygen quantum yield [2] | IC50 ([3]; 30′ LED light exposure) [nM] | IC50 ([3]; in the dark) [nM] | IC50 [4, 7] [nM] | IC50 ([4]; in the dark) [nM] | IC50 [5, 7] [nM] | IC50 ([5]; in the dark) [nM] | standard quantum yield of 1O2 production [6]
1 | F[P-](F)(F)(F)(F)F.F[P-](F)(F)(F)(F)F.O=C(c1ccnc(-c2cc(C(=O)N3CCOCC3)ccn2)c1)N1CCOCC1.[Ru+2].c1ccc2cc3nc4c5cccnc5c5ncccc5c4nc3cc2c1.c1ccc2cc3nc4c5cccnc5c5ncccc5c4nc3cc2c1 [Complex IIIc] | 0.54 ± 0.6 | 1.83×10^−3 | 0.42 | 63.9 | > 40000 |  |  |  |  | 
2 | Cc1ccnc(-c2cc(C)ccn2)c1.F[P-](F)(F)(F)(F)F.F[P-](F)(F)(F)(F)F.[Ru+2].c1ccc2cc3nc4c5cccnc5c5ncccc5c4nc3cc2c1.c1ccc2cc3nc4c5cccnc5c5ncccc5c4nc3cc2c1 [Complex IIIa] | 0.54 ± 0.06 | 1.85×10^−3 | 0.44 |  |  | 25.3 | > 40000 | 164 | > 40000 | 
3 | [Cl][Ru][Cl].c1cnc2c(c1)ccc1cccnc12.c1cnc2c(c1)ccc1cccnc12.c1cnc2c(c1)ccc1cccnc12 [[Ru(phen)3]Cl2, dichlorotris(1,10-phenanthroline)ruthenium (II) chloride, reference compound] |  | 9.41×10^−4 |  |  |  |  |  |  |  | 0.38
4 | O=C([O-])c1ccnc(-c2cc(C(=O)[O-])ccn2)c1.[Ru+2].c1ccc2cc3nc4c5cccnc5c5ncccc5c4nc3cc2c1.c1ccc2cc3nc4c5cccnc5c5ncccc5c4nc3cc2c1 [Complex IIIb, [Ru(4,4′-dicarboxylate-2,2′-bipyridine)(benzo[i]dipyrido[3,2-a:2′,3′-c]phenazine)2]] | 0.50 ± 0.07 | 2.71×10^−3 | 0.47 |  |  | 191 | > 40000 |  |  | 
